Laboratory results from patent US20250230193A1, “CYCLIC COMPOUND HAVING SELECTIVE KRAS INHIBITORY EFFECT ON HRAS AND NRAS” (CHUGAI SEIYAKU KABUSHIKI KAISHA, priority 2022, published 2025).
Where a SMILES comes first, the peptide text is derived from it. Bridges are numbered along the chain shown (N, C = ends). [ ]: non-standard residue; d: D form. The star is where a group is joined. hPhe(3-Cl-4-CF3) = N[C@@H](CCc1ccc(C(F)(F)F)c(Cl)c1)C(=O)O; NPrPhe(4-CF3) = CCCN[C@@H](Cc1ccc(C(F)(F)F)cc1)C(=O)O; NMeGly(cPent) = CN[C@H](C(=O)O)C1CCCC1; Ac4c(3,3-Me2) = CC1(C)CC(N)(C(=O)O)C1; NMeD = CN[C@@H](CC(=O)O)C(=O)O; NMeL = CN[C@@H](CC(C)C)C(=O)O; Morpholide = C1CN(*)CCO1; Aze = O=C(O)[C@@H]1CCN1; Ac4c = NC1(C(=O)O)CCC1; Sar = CNCC(=O)O

How the values were obtained:
[1] = target: GDP-bound HRAS wild-type protein (Homo sapiens, UniProt P01112); experiment: Binding to HRAS by surface plasmon resonance (SPR), Single Cycle Kinetics; settings: for HRAS/KRAS (ratio of KD value with respect to HRAS to KD value with respect to KRAS) / HRAS/KRAS (ratio of KD value for HRAS to KD value for KRAS): GDP-bound HRAS wild-type vs GDP-bound KRAS wild-type
[2] = target: GDP-bound NRAS wild-type protein (Homo sapiens, UniProt P01111); experiment: Binding to NRAS by surface plasmon resonance (SPR), Single Cycle Kinetics; settings: for NRAS/KRAS (ratio of KD value with respect to NRAS to KD value with respect to KRAS) / NRAS/KRAS (ratio of KD value for NRAS to KD value for KRAS): GDP-bound NRAS wild-type vs GDP-bound KRAS wild-type
[3] = KD ratio HRAS/KRAS, class symbols
[4] = KD ratio NRAS/KRAS, class symbols

Chain of GDP-bound NRAS wild-type protein (P01111 whole entry): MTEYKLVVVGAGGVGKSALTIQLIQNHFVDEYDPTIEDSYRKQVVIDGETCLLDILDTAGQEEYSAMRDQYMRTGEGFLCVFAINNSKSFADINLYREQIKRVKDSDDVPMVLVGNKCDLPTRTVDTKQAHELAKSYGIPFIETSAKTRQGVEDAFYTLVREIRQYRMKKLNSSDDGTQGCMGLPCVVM
Chain of GDP-bound HRAS wild-type protein (P01112 whole entry): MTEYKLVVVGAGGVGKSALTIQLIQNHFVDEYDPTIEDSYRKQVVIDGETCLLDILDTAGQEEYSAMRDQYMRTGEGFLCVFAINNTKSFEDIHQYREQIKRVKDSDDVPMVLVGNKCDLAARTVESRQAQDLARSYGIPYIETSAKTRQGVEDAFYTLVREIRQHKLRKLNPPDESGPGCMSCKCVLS

CC[C@H](C)[C@@H]1NC(=O)[C@H](CC(C)C)N(C)C(=O)C[C@@H](C(=O)N2CCOCC2)N(C)C(=O)[C@H](C2CCCC2)N(C)C(=O)C2(CCC2)NC(=O)[C@@H]2[C@@H](O)CCN2C(=O)[C@H](CCc2cc(F)c(C(F)(F)F)c(F)c2)NC(=O)CN(C)C(=O)[C@H](Cc2ccc(C(F)(F)F)cc2)N2CCCCC[C@@H](C2=O)N(C)C(=O)CN(C)C1=O [PP0872]
HRAS/KRAS (ratio of KD value with respect to HRAS to KD value with respect to KRAS) ([1]; KD ratio, SPR): A (a compound having 10 or more and less than 20 is denoted as A)
NRAS/KRAS (ratio of KD value with respect to NRAS to KD value with respect to KRAS) ([2]; KD ratio, SPR): A (a compound having 10 or more and less than 20 is denoted as A)

CCC(CC)[C@H]1C(=O)N(C)[C@H](C(=O)N(C)C)CC(=O)N(C)[C@@H](COC)C(=O)N[C@@H]([C@@H](C)CC)C(=O)N(C)CC(=O)N(C)[C@H]2C/C=C\CCN(C2=O)[C@@H](Cc2ccc(C)cc2)C(=O)N(C)CC(=O)N[C@@H](CCc2cc(F)c(C(F)(F)F)c(F)c2)C(=O)N2CC3(CC3)C[C@H]2C(=O)NC2(CC(C)(C)C2)C(=O)N1C [PP2963]
HRAS/KRAS (ratio of KD value with respect to GDP-bound HRAS wild-type protein to KD value with respect to KRAS) [1, 3]: A (a compound having 10 or more and less than 20 is denoted as A)
NRAS/KRAS (ratio of KD value with respect to GDP-bound NRAS wild-type protein to KD value with respect to KRAS) [2, 4]: AA (a compound having 20 or more is denoted as AA)

CCO[C@@H]1C[C@H]2C(=O)NC3(CC(C)(C)C3)C(=O)N(C)[C@@H](C3CCCC3)C(=O)N(C)[C@H](C(=O)N3CCCCC3)CC(=O)N(C)[C@@H](COC)C(=O)N[C@@H]([C@@H](C)CC)C(=O)N(C)CC(=O)N(C)[C@H]3C/C=C\CCN(C3=O)[C@@H](Cc3ccc(C)cc3)C(=O)N(C)CC(=O)N[C@@H](CCc3cc(F)c(C(F)(F)F)c(F)c3)C(=O)N2C1 [PP2668]
HRAS/KRAS (ratio of KD value with respect to GDP-bound HRAS wild-type protein to KD value with respect to KRAS) [1, 3]: A (a compound having 10 or more and less than 20 is denoted as A)
NRAS/KRAS (ratio of KD value with respect to GDP-bound NRAS wild-type protein to KD value with respect to KRAS) [2, 4]: A (a compound having 10 or more and less than 20 is denoted as A)

CCC(CC)[C@H]1C(=O)N(C)[C@H](C(=O)N(C)C)CC(=O)N(C)[C@@H](COC)C(=O)N[C@@H]([C@@H](C)CC)C(=O)N(C)CC(=O)N(C)[C@H]2C/C=C\CCN(C2=O)[C@@H](Cc2ccc(C)cc2)C(=O)N(C)CC(=O)N[C@@H](CCc2ccc(C(F)(F)F)c(OC)c2)C(=O)N2CCCCC[C@H]2C(=O)NC2(CC(C)(C)C2)C(=O)N1C [PP2970]
HRAS/KRAS (ratio of KD value with respect to GDP-bound HRAS wild-type protein to KD value with respect to KRAS) [1, 3]: A (a compound having 10 or more and less than 20 is denoted as A)
NRAS/KRAS (ratio of KD value with respect to GDP-bound NRAS wild-type protein to KD value with respect to KRAS) [2, 4]: A (a compound having 10 or more and less than 20 is denoted as A)

CC[C@H](C)[C@@H]1NC(=O)[C@H](CC(C)C)N(C)C(=O)C[C@@H](C(=O)N2CCOCC2)N(C)C(=O)[C@H](C2CCCC2)N(C)C(=O)C(C)(C)NC(=O)[C@@H]2CCCN2C(=O)[C@H](CCc2cc(F)c(C(F)(F)F)c(F)c2)NC(=O)CN(C)C(=O)[C@H](Cc2ccc(C(F)(F)F)cc2)N2CCCC[C@@H](C2=O)N(C)C(=O)CN(C)C1=O [PP0565]
HRAS/KRAS (ratio of KD value with respect to GDP-bound HRAS wild-type protein to KD value with respect to KRAS) ([1]; KD ratio HRAS/KRAS, SPR): B (a compound having 3 or more and less than 10 is denoted as B)
NRAS/KRAS (ratio of KD value with respect to GDP-bound NRAS wild-type protein to KD value with respect to KRAS) ([2]; KD ratio NRAS/KRAS, SPR): C (A compound having a KD ratio of 0.1 or more and less than 3 is denoted as C)

CCCN1C(=O)[C@@H]2CCN2C(=O)CN(C)C(=O)[C@H]([C@@H](C)CC)NC(=O)[C@H](CC(C)C)N(C)C(=O)C[C@@H](C(=O)N2CCOCC2)NC(=O)[C@H](C2CCCC2)N(C)C(=O)C2(CCC2)NC(=O)[C@@H]2CCCN2C(=O)[C@H](CCc2ccc(C(F)(F)F)c(Cl)c2)NC(=O)CN(C)C(=O)[C@@H]1Cc1ccc(C(F)(F)F)cc1 [PP0350] ([NMeL]I[Sar][Aze][NPrPhe(4-CF3)][Sar][hPhe(3-Cl-4-CF3)]P[Ac4c][NMeGly(cPent)]D-Morpholide; lactam N-11)
HRAS/KRAS (ratio of KD for GDP-bound HRAS wild-type to KD for KRAS) ([1]; KD ratio HRAS/KRAS, SPR): B (a compound having 3 or more and less than 10 is denoted as B)
NRAS/KRAS (ratio of KD for GDP-bound NRAS wild-type to KD for KRAS) ([2]; KD ratio NRAS/KRAS, SPR): C (A compound having a KD ratio of 0.1 or more and less than 3 is denoted as C)

CCCN1C(=O)CN(C)C(=O)CN(C)C(=O)[C@H]([C@@H](C)OCC)NC(=O)[C@H](CC(C)C)N(C)C(=O)C[C@@H](C(=O)N2CCOCC2)N(C)C(=O)[C@H](C2CCCC2)N(C)C(=O)C2(CC(C)(C)C2)NC(=O)[C@@H]2CCCN2C(=O)[C@H](CCc2ccc(C(F)(F)F)c(Cl)c2)NC(=O)CN(C)C(=O)[C@@H]1Cc1ccc(C(F)(F)F)cc1 [PP1964] ([NMeL]T(Et)[Sar][Sar][NPrPhe(4-CF3)][Sar][hPhe(3-Cl-4-CF3)]P[Ac4c(3,3-Me2)][NMeGly(cPent)][NMeD]-Morpholide; lactam N-11)
HRAS/KRAS (ratio of KD value for HRAS to KD value for KRAS) ([1]; KD ratio, SPR): B (a compound having 3 or more and less than 10 is denoted as B)
NRAS/KRAS (ratio of KD value for NRAS to KD value for KRAS) ([2]; KD ratio, SPR): B (a compound having 3 or more and less than 10 is denoted as B)

CCO[C@@H]1C[C@H]2C(=O)NC3(CCC3)C(=O)N(C)[C@@H](C3CCCC3)C(=O)N(C)[C@H](C(=O)N3CCOCC3)CC(=O)N(C)[C@@H](Cc3cccc(C)c3)C(=O)N[C@@H]([C@@H](C)CC)C(=O)N(C)CC(=O)N(C)[C@H]3CCCCCN(C3=O)[C@@H](Cc3ccc(C(F)(F)F)cc3)C(=O)N(C)CC(=O)N[C@@H](CCc3cc(F)c(C(F)(F)F)c(F)c3)C(=O)N2C1 [PP0932]
HRAS/KRAS (ratio of KD value with respect to HRAS to KD value with respect to KRAS) ([1]; KD ratio, SPR): B (a compound having 3 or more and less than 10 is denoted as B)
NRAS/KRAS (ratio of KD value with respect to NRAS to KD value with respect to KRAS) ([2]; KD ratio, SPR): B (a compound having 3 or more and less than 10 is denoted as B)

CCO[C@@H]1C[C@H]2C(=O)NC3(CC(C)(C)C3)C(=O)N(C)[C@@H](C(CC)CC)C(=O)N(C)[C@H](C(=O)N(C)C)CC(=O)N(C)[C@@H](C(C)C)C(=O)N[C@@H]([C@@H](C)CC)C(=O)N(C)CC(=O)N(C)[C@H]3C/C=C\CCN(C3=O)[C@@H](CC3CCC(F)(F)CC3)C(=O)N(C)CC(=O)N[C@@H](CCc3ccc(C(F)(F)F)c(OC)c3)C(=O)N2C1 [PP2477]
HRAS/KRAS (ratio of KD value with respect to HRAS to KD value with respect to KRAS) ([1]; SPR): A (a compound having 10 or more and less than 20 is denoted as A)
NRAS/KRAS (ratio of KD value with respect to NRAS to KD value with respect to KRAS) ([2]; SPR): A (a compound having 10 or more and less than 20 is denoted as A)

CCOC[C@H]1C(=O)N[C@@H]([C@@H](C)CC)C(=O)N(C)CC(=O)N(C)[C@H]2C/C=C\CCN(C2=O)[C@@H](Cc2ccc(C)cc2)C(=O)N(C)CC(=O)N[C@@H](CCc2ccc(C(F)(F)F)c(OC)c2)C(=O)N2C[C@H](OCC)C[C@H]2C(=O)NC2(CC(C)(C)C2)C(=O)N(C)[C@@H](C2CCCC2)C(=O)N(C)[C@H](C(=O)N(CC)CC)CC(=O)N1C [PP2406]
HRAS/KRAS (ratio of KD value with respect to HRAS to KD value with respect to KRAS) ([1]; SPR): A (a compound having 10 or more and less than 20 is denoted as A)
NRAS/KRAS (ratio of KD value with respect to NRAS to KD value with respect to KRAS) ([2]; SPR): A (a compound having 10 or more and less than 20 is denoted as A)

CCO[C@@H]1C[C@H]2C(=O)NC3(CCC3)C(=O)N(C)[C@@H](C(CC)CC)C(=O)N(C)[C@H](CC)CC(=O)N(C)[C@@H](CC)C(=O)N[C@@H]([C@@H](C)CC)C(=O)N(C)CC(=O)N(C)[C@H]3C/C=C\CCN(C3=O)[C@@H](Cc3ccc(C(F)(F)F)cc3)C(=O)N(C)CC(=O)N[C@@H](CCc3cc(F)c(C(F)(F)F)c(F)c3)C(=O)N2C1 [PP1624]
HRAS/KRAS (ratio of KD value for HRAS to KD value for KRAS) ([1]; KD ratio, SPR): A (a compound having 10 or more and less than 20 is denoted as A)
NRAS/KRAS (ratio of KD value for NRAS to KD value for KRAS) ([2]; KD ratio, SPR): A (a compound having 10 or more and less than 20 is denoted as A)
